As a reminder, the solubility is the concentration that dissolves in the medium under given conditions. Higher therefore signals a readily soluble substance. The term pKi denotes the negative decadic logarithm of the Ki, by convention in mol/L. A high value points to a low Ki. What is called pIC50 is −log10 of the IC50, conventionally taken in molar units.

Structures are written as SMILES. pIC50, pKi: −log10 of the molar value. Converted amounts (≈) assume the structure as drawn.

Data set [1] is described as follows: Solubility test in first and second liquid of the Japanese Pharmacopoeia.
Protocol: The solubilities of the substance under test in the first liquid (JP1, pH=1.2) of the Japanese Pharmacopoeia and the second liquid (JP2, pH=6.8) of the Japanese Pharmacopoeia, were evaluated.
In a further data set the target is T1, hα4 and β1 integrins (Homo sapiens, UniProt P05556+P13612).
T1 construct: expressed in transfected cells; host or cells: CHO cells
In words: In vitro inhibition of binding between CHO cells expressing hα4 and β1 integrins and Eu3+-hVCAM-1 D1D7-IgG. The conditions noted are these: for pKi: CHO cells expressing hα4 and β1 integrins, Eu3+-hVCAM-1 D1D7-IgG ligand, without HSA; for pIC50: in the presence of 3% human serum albumin (HSA final concentration 3%). In short, it runs like this: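 Transfected CHO cells, cultured 2 days, were incubated with compound and Eu³⁺-hVCAM-1 D1D7-IgG (diluted to 2 nM) for 1 h at room temperature. Buffer was 25 mM HEPES pH 7.5 with 1 mM Ca²⁺, 1 mM Mg²⁺, 4 mM Mn²⁺ and 0.1% BSA, ±3% HSA final. Cells were washed at 4 °C and read by DELFIA time-resolved fluorescence; Ki was derived from IC50 using the Scatchard Kd.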

Setting [2] is: first liquid of the Japanese Pharmacopoeia (JP1), pH 1.2, simulated gastric fluid, First liquid of Japanese Pharmacopoeia (μg/mL), JP1, pH=1.2.
[3] abbreviates: second liquid of the Japanese Pharmacopoeia (JP2), pH 6.8, aqueous buffer, Second liquid of Japanese Pharmacopoeia (μg/mL), JP2, pH=6.8.

T1 sequence (P13612 34-1032): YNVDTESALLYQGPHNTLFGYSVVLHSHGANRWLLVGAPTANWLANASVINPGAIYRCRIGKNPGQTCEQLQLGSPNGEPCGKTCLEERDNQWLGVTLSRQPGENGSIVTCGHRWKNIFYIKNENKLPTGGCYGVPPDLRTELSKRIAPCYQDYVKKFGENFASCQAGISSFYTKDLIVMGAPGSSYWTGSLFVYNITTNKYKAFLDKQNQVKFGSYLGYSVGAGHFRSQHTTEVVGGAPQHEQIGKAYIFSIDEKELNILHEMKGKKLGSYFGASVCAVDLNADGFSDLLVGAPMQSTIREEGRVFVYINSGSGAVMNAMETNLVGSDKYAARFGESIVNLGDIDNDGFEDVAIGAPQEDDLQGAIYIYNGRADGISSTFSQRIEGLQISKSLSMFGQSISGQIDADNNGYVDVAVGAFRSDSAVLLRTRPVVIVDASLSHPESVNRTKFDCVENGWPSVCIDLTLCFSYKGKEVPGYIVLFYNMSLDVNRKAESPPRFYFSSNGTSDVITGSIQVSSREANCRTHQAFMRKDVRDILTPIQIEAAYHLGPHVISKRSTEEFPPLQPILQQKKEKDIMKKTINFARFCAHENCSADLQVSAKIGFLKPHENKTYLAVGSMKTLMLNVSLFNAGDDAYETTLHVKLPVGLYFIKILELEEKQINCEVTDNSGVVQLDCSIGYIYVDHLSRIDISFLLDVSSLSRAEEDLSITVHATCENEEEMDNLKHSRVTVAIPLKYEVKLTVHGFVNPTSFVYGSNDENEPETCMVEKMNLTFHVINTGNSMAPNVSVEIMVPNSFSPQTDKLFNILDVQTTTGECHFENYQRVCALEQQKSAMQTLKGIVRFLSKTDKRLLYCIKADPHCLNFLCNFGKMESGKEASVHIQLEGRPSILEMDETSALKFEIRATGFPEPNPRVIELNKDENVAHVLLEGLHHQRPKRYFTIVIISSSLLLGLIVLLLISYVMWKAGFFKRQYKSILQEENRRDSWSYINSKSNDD
T1 sequence (P05556 21-798): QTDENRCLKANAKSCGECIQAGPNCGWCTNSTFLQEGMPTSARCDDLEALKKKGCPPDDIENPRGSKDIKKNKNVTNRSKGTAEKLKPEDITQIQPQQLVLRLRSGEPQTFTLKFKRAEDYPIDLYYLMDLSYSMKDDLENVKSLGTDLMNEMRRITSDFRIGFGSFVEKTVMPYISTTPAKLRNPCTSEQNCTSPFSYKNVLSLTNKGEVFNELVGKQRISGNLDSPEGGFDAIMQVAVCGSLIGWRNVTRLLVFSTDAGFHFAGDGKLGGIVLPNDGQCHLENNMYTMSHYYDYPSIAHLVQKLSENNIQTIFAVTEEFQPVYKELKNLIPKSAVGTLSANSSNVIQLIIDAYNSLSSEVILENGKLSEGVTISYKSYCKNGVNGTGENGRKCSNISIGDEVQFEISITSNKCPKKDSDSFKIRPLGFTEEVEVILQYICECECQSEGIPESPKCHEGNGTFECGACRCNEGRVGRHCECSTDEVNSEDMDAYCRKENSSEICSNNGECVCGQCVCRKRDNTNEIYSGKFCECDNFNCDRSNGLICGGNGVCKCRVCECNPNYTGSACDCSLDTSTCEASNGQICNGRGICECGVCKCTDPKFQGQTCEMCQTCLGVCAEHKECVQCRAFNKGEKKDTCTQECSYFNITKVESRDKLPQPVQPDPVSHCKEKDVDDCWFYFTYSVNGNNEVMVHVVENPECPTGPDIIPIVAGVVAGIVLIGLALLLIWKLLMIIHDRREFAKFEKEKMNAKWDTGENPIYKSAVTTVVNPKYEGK

Take `CCO[C@@H]1CCN([C@H]2C[C@@H](CO[C@H]3CC[C@H](C(=O)O)CC3)N(C(=O)Cc3cc(Cl)c(NC(=O)c4csc5ccccc45)cc3F)C2)C1` [Example 34, Trans-4-[1-[[4-[(benzo[b]thiophen-3-ylcarbonyl)amino]-5-chloro-2-fluorophenyl]acetyl]-(4S)-[(3R)-ethoxypyrrolidin-1-yl]-(2S)-pyrrolidinylmethoxy]cyclohexanecarboxylic acid]: the solubility is more than 2000 µg/mL in data set [1] (setting [2]) and 1640 µg/mL (≈ 2390 µM) in data set [1] (setting [3]). This compound showed a negative logarithm of the Ki (pKi) on hα4 and β1 integrins of 8.70. The negative logarithm of the IC50 (pIC50) on hα4 and β1 integrins was 8.00.
As for `COCCC1CN([C@H]2C[C@@H](CO[C@H]3CC[C@H](C(=O)O)CC3)N(C(=O)Cc3cc(Cl)c(NC(=O)c4csc5ccccc45)cc3F)C2)C1` [Example 12, Trans-4-[1-[[4-[(benzo[b]thiophen-3-ylcarbonyl)amino]-5-chloro-2-fluorophenyl]acetyl]-(4S)-[3-(2-methoxyethyl)azetidin-1-yl]-(2S)-pyrrolidinylmethoxy]cyclohexanecarboxylic acid], in data set [1] (setting [2]), the solubility is 1910 µg/mL (≈ 2780 µM). Besides, the concentration in solution in data set [1] (setting [3]) (solubility) came to 1690 µg/mL (≈ 2460 µM). On hα4 and β1 integrins, the negative-log Ki (pKi) is 9.00 and the pIC50 was 8.07.
In the case of `O=C(Nc1cc(F)c(CC(=O)N2C[C@@H](N3CC(N4CCCCC4)C3)C[C@H]2CO[C@H]2CC[C@H](C(=O)O)CC2)cc1Cl)c1csc2ccccc12` [Example 28, Trans-4-[1-[[4-[(benzo[b]thiophen-3-ylcarbonyl)amino]-5-chloro-2-fluorophenyl]acetyl]-(4S)-[3-(piperidin-1-yl)azetidin-1-yl]-(2S)-pyrrolidinylmethoxy]cyclohexanecarboxylic acid], the solubility in data set [1] (setting [2]) was 1100 µg/mL (≈ 1550 µM). Besides, in data set [1] (setting [3]), the concentration in solution (solubility) was 1100 µg/mL (≈ 1550 µM). At hα4 and β1 integrins, the pKi was 8.59 and the pIC50 was 7.92.
Regarding `CN(C)C(=O)[C@@H]1CCCN1[C@H]1C[C@@H](CO[C@H]2CC[C@H](C(=O)O)CC2)N(C(=O)Cc2cc(Cl)c(NC(=O)c3csc4ccccc34)cc2F)C1` [Example 42], the “Solubility, Second liquid of Japanese Pharmacopoeia” value in data set [1] (JP2, pH=6.8) is 1931 µg/mL. In addition, the solubility in data set [1] (setting [2]) and in data set [1] (setting [3]) was more than 2000 µg/mL throughout. In addition, the pKi at hα4 and β1 integrins is 9.49. Moreover, the negative-log IC50 (pIC50) on hα4 and β1 integrins is 8.96.
Turning to `C[C@@H]1CN([C@H]2C[C@@H](CO[C@H]3CC[C@H](C(=O)O)CC3)N(C(=O)Cc3ccc(NC(=O)c4nccc5ccccc45)c(Cl)c3)C2)C[C@H](C)O1` [Example 86, Trans-4-[1-[[3-chloro-4-[(isoquinolin-1-ylcarbonyl)amino]phenyl]acetyl]-(4S)-(cis-2,6-dimethylmorpholin-4-yl)-(2S)-pyrrolidinylmethoxy]cyclohexanecarboxylic acid], the solubility in data set [1] (setting [2]) was 1300 µg/mL (≈ 1960 µM). In data set [1] (setting [3]), this compound displayed a solubility of 1200 µg/mL (≈ 1810 µM). Also, at hα4 and β1 integrins, the negative-log Ki (pKi) was 8.35 and the negative logarithm of the IC50 (pIC50) is 7.57.
Taken in the same sequence, the figures for `CO[C@@H]1CCN([C@H]2C[C@@H](CO[C@H]3CC[C@H](C(=O)O)CC3)N(C(=O)Cc3cc(Cl)c(NC(=O)c4cn(C)c5ccccc45)cc3Cl)C2)C1` [Example 33, Trans-4-[1-[[2,5-dichloro-4-[(1-methyl-1H-indol-3-ylcarbonyl)amino]phenyl]acetyl]-(4S)-[(3R)-methoxypyrrolidin-1-yl]-(2S)-pyrrolidinylmethoxy]cyclohexanecarboxylic acid] were more than 2000 µg/mL, more than 2000 µg/mL, 8.25 and 7.70.
As for `CN(C)C(=O)C1CCN([C@H]2C[C@@H](CO[C@H]3CC[C@H](C(=O)O)CC3)N(C(=O)Cc3cc(Cl)c(NC(=O)c4coc5ccccc45)cc3Cl)C2)CC1` [Example 107, Trans-4-[1-[[4-[(benzo[b]furan-3-ylcarbonyl)amino]-2,5-dichlorophenyl]acetyl]-(4S)-[4-(dimethylcarbamoyl)piperidin-1-yl]-(2S)-pyrrolidinylmethoxy]cyclohexanecarboxylic acid], the solubility in data set [1] (setting [2]) and in data set [1] (setting [3]) was 1200 µg/mL (≈ 1650 µM) throughout. In addition, the pKi on hα4 and β1 integrins was 8.74. Further, at hα4 and β1 integrins, the pIC50 was 8.12.
Consider `Cn1cc(C(=O)Nc2cc(Cl)c(CC(=O)N3C[C@@H](N4CCCOCC4)C[C@H]3CO[C@H]3CC[C@H](C(=O)O)CC3)cc2Cl)c2ccccc21` [Example 165, Trans-4-[1-[[2,5-dichloro-4-[(1-methyl-1H-indol-3-ylcarbonyl)amino]phenyl]acetyl]-(4S)-([1,4]-oxazepan-4-yl)-(2S)-pyrrolidinylmethoxy]cyclohexanecarboxylic acid], for which the solubility in data set [1] (setting [2]) and in data set [1] (setting [3]) was more than 2000 µg/mL in each case. The negative logarithm of the Ki (pKi) on hα4 and β1 integrins is 8.09. The negative logarithm of the IC50 (pIC50) at hα4 and β1 integrins was 7.92.
As to `O=C(Nc1cc(F)c(CC(=O)N2C[C@@H](N3CC(N4CCOCC4)C3)C[C@H]2CO[C@H]2CC[C@H](C(=O)O)CC2)cc1Cl)c1csc2ccccc12` [Example 27, Trans-4-[1-[[4-[(benzo[b]thiophen-3-ylcarbonyl)amino]-5-chloro-2-fluorophenyl]acetyl]-(4S)-[3-(4-morpholinyl)azetidin-1-yl]-(2S)-pyrrolidinylmethoxy]cyclohexanecarboxylic acid], in data set [1] (setting [2]), the concentration in solution (solubility) was 1000 µg/mL (≈ 1400 µM). This compound yielded a solubility in data set [1] (setting [3]) of 1000 µg/mL (≈ 1400 µM). Moreover, at hα4 and β1 integrins, the negative logarithm of the Ki (pKi) was 8.42 and the pIC50 is 7.37.
As for `CO[C@H]1CN([C@H]2C[C@@H](CO[C@H]3CC[C@H](C(=O)O)CC3)N(C(=O)Cc3cc(Cl)c(NC(=O)c4cn(C)c5ccccc45)cc3Cl)C2)C[C@@H]1OC` [Example 51, Trans-4-[1-[[2,5-dichloro-4-[(1-methyl-1H-indol-3-ylcarbonyl)amino]phenyl]acetyl]-(4S)-[(3S,4S)-dimethoxypyrrolidin-1-yl]-(2S)-pyrrolidinylmethoxy]cyclohexanecarboxylic acid], the solubility in data set [1] (setting [2]) is 1000 µg/mL (≈ 1400 µM). This compound also had a solubility in data set [1] (setting [3]) of 1000 µg/mL (≈ 1400 µM). Also, at hα4 and β1 integrins, the pKi is 8.24 and the negative logarithm of the IC50 (pIC50) was 7.74.
`CCO[C@H]1CCN([C@H]2C[C@@H](CO[C@H]3CC[C@H](C(=O)O)CC3)N(C(=O)Cc3cc(Cl)c(NC(=O)c4cn(C)c5ccccc45)cc3Cl)C2)C1` [Example 36, Trans-4-[1-[[2,5-dichloro-4-[(1-methyl-1H-indol-3-ylcarbonyl)amino]phenyl]acetyl]-(4S)-[(3S)-ethoxypyrrolidin-1-yl]-(2S)-pyrrolidinylmethoxy]cyclohexanecarboxylic acid] registered a solubility in data set [1] (setting [2]) of 1940 µg/mL (≈ 2770 µM). In data set [1] (setting [3]), this compound returned a solubility of 1840 µg/mL (≈ 2630 µM). On hα4 and β1 integrins, the negative logarithm of the Ki (pKi) is 8.23 and the pIC50 is 7.62.
For the compound `CO[C@H]1CN([C@H]2C[C@@H](CO[C@H]3CC[C@H](C(=O)O)CC3)N(C(=O)Cc3cc(Cl)c(NC(=O)c4csc5ccccc45)cc3F)C2)C[C@@H]1OC` [Example 52, Trans-4-[1-[[4-[(benzo[b]thiophen-3-ylcarbonyl)amino]-5-chloro-2-fluorophenyl]acetyl]-(4S)-[(3S,4S)-dimethoxypyrrolidin-1-yl]-(2S)-pyrrolidinylmethoxy]cyclohexanecarboxylic acid], the solubility in data set [1] (setting [2]) and in data set [1] (setting [3]) was 1000 µg/mL (≈ 1420 µM) throughout. The same compound gave a pKi at hα4 and β1 integrins of 8.92. The negative-log IC50 (pIC50) at hα4 and β1 integrins was 8.08.
`O=C(Nc1cc(F)c(CC(=O)N2C[C@@H](N3C[C@@H]4OCO[C@@H]4C3)C[C@H]2CO[C@H]2CC[C@H](C(=O)O)CC2)cc1Cl)c1coc2ccccc12` [Example 74, Trans-4-[1-[[4-[(benzo[b]furan-3-ylcarbonyl)amino]-5-chloro-2-fluorophenyl]acetyl]-(4S)-[(3a,6a-cis)-tetrahydro[1,3]dioxolo[4,5-c]pyrrol-5-yl]-(2S)-pyrrolidinylmethoxy]cyclohexanecarboxylic acid]: the solubility in data set [1] (setting [2]) was 1200 µg/mL (≈ 1790 µM); in data set [1] (setting [3]), 1300 µg/mL (≈ 1940 µM). Also, the negative logarithm of the Ki (pKi) at hα4 and β1 integrins is 8.82. Also, the negative logarithm of the IC50 (pIC50) on hα4 and β1 integrins is 8.06.
For `CO[C@H]1CN([C@H]2C[C@@H](CO[C@H]3CC[C@H](C(=O)O)CC3)N(C(=O)Cc3cc(Cl)c(NC(=O)c4coc5ccccc45)cc3Cl)C2)C[C@@H]1OC` [Example 54, Trans-4-[1-[[4-[(benzo[b]furan-3-ylcarbonyl)amino]-2,5-dichlorophenyl]acetyl]-(4S)-[(3S,4S)-dimethoxypyrrolidin-1-yl]-(2S)-pyrrolidinylmethoxy]cyclohexanecarboxylic acid] the same measures were 1000 µg/mL (≈ 1420 µM), 1000 µg/mL (≈ 1420 µM), 8.47 and 7.60.
With `CN(C)CC1CN([C@H]2C[C@@H](CO[C@H]3CC[C@H](C(=O)O)CC3)N(C(=O)Cc3cc(Cl)c(NC(=O)c4cn(C)c5ccccc45)cc3F)C2)C1` [Example 29, Trans-4-[1-[[5-chloro-2-fluoro-4-[(1-methyl-1H-indol-3-ylcarbonyl)amino]phenyl]acetyl]-(4S)-[3-(N,N-dimethylaminomethyl)azetidin-1-yl]-(2S)-pyrrolidinylmethoxy]cyclohexane carboxylic acid], the solubility in data set [1] (setting [2]) and in data set [1] (setting [3]) was 1000 µg/mL (≈ 1470 µM) each time. Further, on hα4 and β1 integrins, the pKi is 8.38. Also, the pIC50 on hα4 and β1 integrins was 7.92.
`O=C(Nc1cc(F)c(CC(=O)N2C[C@@H](N3CCC(N4CCOCC4)CC3)C[C@H]2CO[C@H]2CC[C@H](C(=O)O)CC2)cc1Cl)c1csc2ccccc12` [Example 110, Trans-4-[1-[[4-[(benzo[b]thiophen-3-ylcarbonyl)amino]-5-chloro-2-fluorophenyl]acetyl]-(4S)-[4-(morpholin-4-yl)piperidin-1-yl]-(2S)-pyrrolidinylmethoxy]cyclohexanecarboxylic acid] yielded a solubility in data set [1] (setting [2]) of more than 2000 µg/mL. The compound also returned a solubility in data set [1] (setting [3]) of more than 2000 µg/mL. On hα4 and β1 integrins, the negative-log Ki (pKi) is 9.60 and the negative logarithm of the IC50 (pIC50) was 7.52.

(Values after patent US8129366B2, “VLA-4 inhibitory drug” (Daiichi Sankyo Company, Limited, priority 2005, dated 2012).)
